target: T1, Full-length, GST-tagged, human CaMKIIδ (Homo sapiens, UniProt Q13557); experiment: CaMKIIδ binding assay (TR-FRET with BODIPY-labeled probe ligand); details: CaMKIIδ binding assay, results of Table 2
T1 construct: Full-Length, Glutathione-S-Transferase(GST)-Tagged, Human CaMKIIδ was purchased from Carna Biosciences; purchased Carna Biosciences 02-111
Method: In vitro CaMKIIδ inhibitory activity was evaluated by a binding assay.
Full-Length, Glutathione-S-Transferase(GST)-Tagged, Human CaMKIIδ was purchased from Carna Biosciences (product #02-111, Kobe, Japan). Full-length bovine calmodulin was purchased from Wako Pure Chemical Industries (Osaka, Japan). Terbium-labeled anti-GST antibody (Tb-anti-GST Ab) was purchased from Life Technologies (Carlsbad, Calif., USA). Boron-dipyrromethene (BODIPY)-labeled probe ligand was synthesized as described below.
Time-Resolved Fluorescence Resonance Energy Transfer (TR-FRET) Assay
All assays were conducted using 384-well, white, flat-bottomed plates (product #784075, Greiner Bio-One, Frickenhausen, Germany) in kinase assay buffer, which consists of 50 mM HEPES pH 7.6, 10 mM MgCl2, 1 mM EGTA, 0.01% Brig-35, 0.1 mM DTT). The fluorescent probe ligand was added at a final concentration of 300 nM to solutions containing 0.21 nM Tb-anti-GST Ab, 1 mM CaCl2), 10 μg/mL calmodulin, and 0.5 nM GST-tagged CaMKIIδ. After shaded incubation of the protein-probe mixture on ice for 30 min, the premix was dispensed in the assay plate including test inhibitors with 4 fold dilution series of eight concentrations. After 1 hr incubation at room temperature, TR-FRET signals were measured in duplicate using an EnVision microplate reader (Perkin Elmer, Waltham, Mass., USA). The solution in each well was excited with a laser (λ=340 nm) reflected by a dichroic mirror (D400/D505 (Perkin Elmer) through an excitation filter (UV (TRF) 340, (Perkin Elmer)), and fluorescence from Tb and BODIPY were detected through two emission filters (CFP 495 (Perkin Elmer) for Tb, Emission 520 (Perkin Elmer) for BODIPY).
The percentage of inhibition of test compounds was calculated according to equation (1) Inhibition (%)=100×([…]−T)/(μH−μL) (1)
Where T is the value of the wells containing test compounds and μH and μL are the mean values of the 0% and 100% inhibition control wells, respectively. The values of the 0 and 100% controls were the signals obtained in the absence and presence of 3 μM its parent compound, respectively. The half maximal inhibitory concentration (IC50) of test compounds was calculated by fitting the data with the logistic equation using XLfit (IDBS, Guildford, UK). The IC50 was classified according to the following activity ranks.

T1 sequence (Q13557 1-478 isoform Q13557-12): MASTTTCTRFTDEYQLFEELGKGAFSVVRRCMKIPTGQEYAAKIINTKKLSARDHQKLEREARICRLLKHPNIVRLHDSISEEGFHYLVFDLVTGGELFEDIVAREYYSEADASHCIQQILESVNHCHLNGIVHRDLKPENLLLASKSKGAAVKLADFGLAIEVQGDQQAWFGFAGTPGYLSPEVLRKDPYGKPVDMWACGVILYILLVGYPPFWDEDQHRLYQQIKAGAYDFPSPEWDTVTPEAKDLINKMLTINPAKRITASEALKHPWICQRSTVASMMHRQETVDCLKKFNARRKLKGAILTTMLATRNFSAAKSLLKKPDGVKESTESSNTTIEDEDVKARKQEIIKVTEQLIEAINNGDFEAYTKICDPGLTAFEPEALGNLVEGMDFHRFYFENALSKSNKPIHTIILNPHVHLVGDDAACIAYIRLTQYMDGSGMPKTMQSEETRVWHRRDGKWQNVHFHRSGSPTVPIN

Compound | IC50
C[C@@H](Cn1cnnn1)Oc1cc(-c2cnc(Nc3cn(C4CCN(C5CCS(=O)(=O)CC5)CC4)nc3C(F)(F)F)nc2)ccc1Cl [Example 565, (S)-4-(4-(4-((5-(3-((1-(1H-tetrazol-1-yl)propan-2-yl)oxy)-4-chlorophenyl)pyrimidin-2-yl)amino)-3-(trifluoromethyl)-1H-pyrazol-1-yl)piperidin-1-yl)tetrahydro-2H-thiopyran 1,1-dioxide] | < 0.01 µM
COCC(C)N1CCC(n2cc(Nc3ncc(-c4ccc(Cl)c(O[C@@H](C)Cn5cnnn5)c4)cn3)c(C(F)(F)F)n2)CC1 (stereo partly drawn) [Example 553, 5-(3-(((S)-1-(1H-tetrazol-1-yl)propan-2-yl)oxy)-4-chlorophenyl)-N-(1-(1-(1-methoxypropan-2-yl)piperidin-4-yl)-3-(trifluoromethyl)-1H-pyrazol-4-yl)pyrimidin-2-amine] | < 0.01 µM
C[C@@H](Cn1cnnn1)Oc1cc(-c2cnc(Nc3cn(C4CCN(Cc5ccsc5)CC4)nc3C(F)(F)F)nc2)ccc1Cl [Example 560, (S)-5-(3-((1-(1H-tetrazol-1-yl)propan-2-yl)oxy)-4-chlorophenyl)-N-(1-(1-(thiophen-3-ylmethyl)piperidin-4-yl)-3-(trifluoromethyl)-1H-pyrazol-4-yl)pyrimidin-2-amine] | < 0.01 µM
COc1cc(C)c(C(=O)N2CCOCC2)cc1Nc1ncc(-c2ccc(C#N)c(O[C@@H](C)Cn3cnnn3)c2)cn1 [Example 440, (S)-2-((1-(1H-tetrazol-1-yl)propan-2-yl)oxy)-4-(2-((2-methoxy-4-methyl-5-(morpholine-4-carbonyl)phenyl)amino)pyrimidin-5-yl)benzonitrile] | < 0.01 µM
C[C@@H](Cn1cnnn1)Oc1cc(-c2cnc(Nc3cc(C4CCN(C5COC5)CC4)ccc3OC(F)(F)F)nc2)ccc1Cl [Example 577, (S)-5-(3-((1-(1H-tetrazol-1-yl)propan-2-yl)oxy)-4-chlorophenyl)-N-(5-(1-(oxetan-3-yl)piperidin-4-yl)-2-(trifluoromethoxy)phenyl)pyrimidin-2-amine] | 0.01 to 0.1 µM
CCc1cc2c(cc1Nc1ncc(-c3ccc(C#N)c(O[C@@H](C)Cn4cnnn4)c3)cn1)CN(C1COC1)CC2 [Example 516, (S)-2-((1-(1H-tetrazol-1-yl)propan-2-yl)oxy)-4-(2-((6-ethyl-2-(oxetan-3-yl)-1,2,3,4-tetrahydroisoquinolin-7-yl)amino)pyrimidin-5-yl)benzonitrile] | 0.01 to 0.1 µM

same assay, conditions: CaMKIIδ binding assay; activity class per Table 2

Compound | IC50
C[C@@H](Cn1cnnn1)Oc1cc(-c2cnc(Nc3cn(CC4(O)CCN(C5CCOCC5)CC4)nc3OCC(F)(F)F)nc2)ccc1Cl [Example 909, (S)-4-((4-((5-(3-((1-(1H-tetrazol-1-yl)propan-2-yl)oxy)-4-chlorophenyl)pyrimidin-2-yl)amino)-3-(2,2,2-trifluoroethoxy)-1H-pyrazol-1-yl)methyl)-1-(tetrahydro-2H-pyran-4-yl)piperidin-4-ol] | < 0.01 µM
C[C@@H](Cn1cnnn1)Oc1cc(-c2cnc(Nc3cn(C4CC5(C4)CN(C4COC(C)(C)OC4)C5)nc3C(F)(F)F)nc2)ccc1Cl [Example 922, (S)-5-(3-((1-(1H-tetrazol-1-yl)propan-2-yl)oxy)-4-chlorophenyl)-N-(1-(2-(2,2-dimethyl-1,3-dioxan-5-yl)-2-azaspiro[3.3]heptan-6-yl)-3-(trifluoromethyl)-1H-pyrazol-4-yl)pyrimidin-2-amine] | < 0.01 µM
C[C@@H](Cn1cnnn1)Oc1cc(-c2cnc(Nc3cn(CC4(O)CCN(C5CCC5)CC4)nc3OCC(F)(F)F)nc2)ccc1Cl [Example 908, (S)-4-((4-((5-(3-((1-(1H-tetrazol-1-yl)propan-2-yl)oxy)-4-chlorophenyl)pyrimidin-2-yl)amino)-3-(2,2,2-trifluoroethoxy)-1H-pyrazol-1-yl)methyl)-1-cyclobutylpiperidin-4-ol] | < 0.01 µM
C[C@@H](Cn1cnnn1)Oc1cc(-c2cnc(Nc3cn(C4CC5(C4)CN(C4COCCOC4)C5)nc3OCC(F)(F)F)nc2)ccc1Cl [Example 982, (S)—N-(1-(2-(1,4-dioxepan-6-yl)-2-azaspiro[3.3]heptan-6-yl)-3-(2,2,2-trifluoroethoxy)-1H-pyrazol-4-yl)-5-(3-((1-(1H-tetrazol-1-yl)propan-2-yl)oxy)-4-chlorophenyl)pyrimidin-2-amine] | < 0.01 µM

same assay, conditions: Table 2; CaMKIIδ binding assay, activity given as class A/B/C

Compound | IC50
C[C@@H](Cn1cnnn1)Oc1cc(-c2cnc(Nc3cn(CC4(O)CCN(C(=O)OC(C)(C)C)CC4)nc3C(F)(F)F)nc2)ccc1Cl [Example 874, tert-butyl (S)-4-((4-((5-(3-((1-(1H-tetrazol-1-yl)propan-2-yl)oxy)-4-chlorophenyl)pyrimidin-2-yl)amino)-3-(trifluoromethyl)-1H-pyrazol-1-yl)methyl)-4-hydroxypiperidine-1-carboxylate] | 0.01 to 0.1 µM
C[C@@H](Cn1cnnn1)Oc1cc(-c2cnc(Nc3cn(CC(C)(C)O)nc3C(F)(F)F)nc2)ccc1Cl [Example 847, (S)-1-(4-((5-(3-((1-(1H-tetrazol-1-yl)propan-2-yl)oxy)-4-chlorophenyl)pyrimidin-2-yl)amino)-3-(trifluoromethyl)-1H-pyrazol-1-yl)-2-methylpropan-2-ol] | < 0.01 µM
C[C@@H](Cn1cnnn1)Oc1cc(-c2cnc(Nc3cn([C@H]4CC[C@H](N5CC(F)C5)CC4)nc3OC3COC3)nc2)ccc1Cl [Example 863, 5-(3-(((S)-1-(1H-tetrazol-1-yl)propan-2-yl)oxy)-4-chlorophenyl)-N-(1-(trans-4-(3-fluoroazetidin-1-yl)cyclohexyl)-3-(oxetan-3-yloxy)-1H-pyrazol-4-yl)pyrimidin-2-amine] | < 0.01 µM
C[C@@H](Cn1cnnn1)Oc1cc(-c2cnc(Nc3cn(C4CCC(=O)CC4)nc3OCC(F)F)nc2)ccc1Cl [Example 800, (S)-4-(4-((5-(3-((1-(1H-tetrazol-1-yl)propan-2-yl)oxy)-4-chlorophenyl)pyrimidin-2-yl)amino)-3-(2,2-difluoroethoxy)-1H-pyrazol-1-yl)cyclohexan-1-one] | < 0.01 µM
C[C@@H](Cn1cnnn1)Oc1cc(-c2cnc(Nc3cn([C@H]4CC[C@@H](N5CC(C)(O)C5)CC4)nc3C(F)(F)F)nc2)ccc1Cl [Example 803, 1-(cis-4-(4-((5-(3-(((S)-1-(1H-tetrazol-1-yl)propan-2-yl)oxy)-4-chlorophenyl)pyrimidin-2-yl)amino)-3-(trifluoromethyl)-1H-pyrazol-1-yl)cyclohexyl)-3-methylazetidin-3-ol] | < 0.01 µM
C[C@@H](Cn1cnnn1)Oc1cc(-c2cnc(Nc3cn(CC(F)F)nc3C(F)(F)F)nc2)ccc1Cl [Example 743, (S)-5-(3-((1-(1H-tetrazol-1-yl)propan-2-yl)oxy)-4-chlorophenyl)-N-(1-(2,2-difluoroethyl)-3-(trifluoromethyl)-1H-pyrazol-4-yl)pyrimidin-2-amine] | 0.01 to 0.1 µM
C[C@@H](Cn1cnnn1)Oc1cc(-c2cnc(Nc3cn(C4CCCCC4O)nc3C(F)(F)F)nc2)ccc1Cl (stereo partly drawn) [Example 733, 2-(4-((5-(3-(((S)-1-(1H-tetrazol-1-yl)propan-2-yl)oxy)-4-chlorophenyl)pyrimidin-2-yl)amino)-3-(trifluoromethyl)-1H-pyrazol-1-yl)cyclohexan-1-ol] | < 0.01 µM
C[C@@H](Cn1cnnn1)Oc1cc(-c2cnc(Nc3cn(CC4CNC(=O)O4)nc3C(F)(F)F)nc2)ccc1Cl (stereo partly drawn) [Example 738, 5-((4-((5-(3-(((S)-1-(1H-tetrazol-1-yl)propan-2-yl)oxy)-4-chlorophenyl)pyrimidin-2-yl)amino)-3-(trifluoromethyl)-1H-pyrazol-1-yl)methyl)oxazolidin-2-one] | < 0.01 µM

same assay, conditions: Table 2; activity class for CaMKIIδ

Compound | IC50
C[C@@H](Cn1cnnn1)Oc1cc(-c2cnc(Nc3cn([C@@H]4C[C@H]5CC[C@@H](C4)N5)nc3C(F)(F)F)nc2)ccc1Cl [Example 702, 5-(3-(((S)-1-(1H-tetrazol-1-yl)propan-2-yl)oxy)-4-chlorophenyl)-N-(1-((1R,3s,5S)-8-azabicyclo[3.2.1]octan-3-yl)-3-(trifluoromethyl)-1H-pyrazol-4-yl)pyrimidin-2-amine] | < 0.01 µM
CC(C)n1ccc(Nc2ncc(-c3ccc(Cl)c(O[C@@H](C)Cn4cnnn4)c3)cn2)n1 [Example 723, (S)-5-(3-((1-(1H-tetrazol-1-yl)propan-2-yl)oxy)-4-chlorophenyl)-N-(1-isopropyl-1H-pyrazol-3-yl)pyrimidin-2-amine] | 0.01 to 0.1 µM
C[C@@H](Cn1cnnn1)Oc1cc(-c2cnc(Nc3cc(C(F)(F)F)n(C)n3)nc2)ccc1Cl [Example 711, (S)-5-(3-((1-(1H-tetrazol-1-yl)propan-2-yl)oxy)-4-chlorophenyl)-N-(1-methyl-5-(trifluoromethyl)-1H-pyrazol-3-yl)pyrimidin-2-amine] | ≥ 0.1 µM

Source: US10543212B2, “Substituted amines for treating cardiac diseases” (Cardurion Pharmaceuticals, LLC, priority 2017, dated 2020)
